Data: US11753408B2, “Compounds and method for blocking transmission of malarial parasite” (The United States of America, as represented by the …, priority 2016, dated 2023)

Experiments:
[1] = test system: Asexual parasites of P. falciparum strain 3D7; assay: In vitro drug activity on asexual parasites (SYBR Green assay); assay type: cell-based, Plasmodium falciparum; settings: P. falciparum 3D7 asexual parasites, 72 h, SYBR Green
In short: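 3D7 parasites at 0.5% parasitemia and 2% hematocrit were exposed to drugs (DMSO ≤0.5%) for 72 h under standard culture conditions, in duplicate. After freeze-thaw lysis, SYBR Green I lysis buffer was added for 30 min at room temperature, and fluorescence was read at 490/520 nm.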

Solubility at pH 7.4 = assay type: physicochemical
PAMPA permeability = assay type: in vitro ADME; settings: PAMPA
[2] = test system: Stage III-V gametocytes (blood stage P. falciparum parasites); assay: In vitro drug activity on gametocytes (AlamarBlue viability assay); assay type: cell-based, Plasmodium falciparum; settings: P. falciparum stage III-V gametocytes, 72 h incubation, AlamarBlue; for EC50: read-out: Gametocyte EC50
In short: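 P. falciparum 3D7 stage III–V gametocytes (also HB3, Dd2), enriched by 50 mM N-acetylglucosamine and Percoll gradient, seeded at 20,000/well with compound for 72 h at 37° C, 5% CO2. AlamarBlue then added for 24 h; viability read as fluorescence (Ex 525, Em 598 nm).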

[3] = Microsomal stability (rat); assay type: in vitro ADME; settings: rat microsomes

Row | Compound | EC50 [1] [nM] | Sol @ pH 7.4 (ug/mL) (Solubility at pH 7.4) | PAMPA Permeability (×10^6 cm/s) (PAMPA permeability) | Microsomal Stability (rat) T1/2 [3] [min] | EC50 [2] [nM] | Gametocyte EC50 (nM) [2]
1 | CN(C)Cc1ccc(-c2ccc3ncc4ccc(=O)n(-c5ccc6c(c5)CN(C5CC5)C6=O)c4c3c2)cc1 [Compound 354] | 687 | >74.0 | 292.3 ×10^6 cm/s | >30.0 | 1910 | 
2 | NCc1cccc(-c2ccc3ncc4ccc(=O)n(-c5ccc6c(c5)CNC6=O)c4c3c2)c1 [Compound 370] | 296 | 27.3 | <1 ×10^6 cm/s | >30 | 4120 | 
3 | CS(=O)(=O)c1ccc(-n2c(=O)ccc3cnc4ccc(-c5ccc(Cl)c(C#N)c5)cc4c32)cc1 [Compound 32] | 85.5 | <1.0 | 39.6 ×10^6 cm/s | >30.0 | 92.8 | 
4 | CN(C)CCc1ccc(-c2ccc3ncc4ccc(=O)n(-c5ccc6c(c5)CNC6=O)c4c3c2)cc1 [Compound 375] | 389 | 13.1 | <1.1 ×10^6 cm/s | >30 | 715 | 
5 | CN(C)Cc1ccc(-c2ccc3ncc4ccc(=O)n(-c5ccc(S(C)(=O)=O)cc5)c4c3c2)cc1 [Compound 30] | 118 | 30.4 | 677.9 ×10^6 cm/s | >30.0 | 336 | 
6 | CS(=O)(=O)c1ccc(-n2c(=O)ccc3cnc4ccc(-c5ccc(Cl)c(C(=O)N6CCOCC6)c5)cc4c32)cc1 [Compound 52] | 14700 | 57.2 | 200.8 ×10^6 cm/s | <1.0 | 35200 | 
7 | CN(C)Cc1ccc(-c2ccc3ncc4ccc(=O)n(-c5cccc(C#N)c5)c4c3c2)cc1 [Compound 2] | 291 | >64.0 | 1040.6 ×10^6 cm/s | >30.0 | 428 | 
8 | O=C1NCc2cc(-n3c(=O)ccc4cnc5ccc(-c6ccc(CN7CCCC7)cc6)cc5c43)ccc21 [Compound 371] | 472 | 45.3 | 1.2 ×10^6 cm/s | >30 | 2470 | 
9 | CN(C)Cc1ccc(-c2ccc3ncc4ccc(=O)n(-c5ccc6c(c5)CCNC6=O)c4c3c2)cc1 [Compound 342] | 130 | 31.01 | 12.72 ×10^6 cm/s | >30.00 | 350 | 
10 | Cc1ccc(C#N)cc1-n1c(=O)ccc2cnc3ccc(-c4ccc(N)nc4)cc3c21 [Compound 21] | 13.8 | 1.1 | 606 ×10^6 cm/s | 12.7 | 17 | 
11 | COc1cc(-c2ccc3ncc4ccc(=O)n(-c5ccc(S(C)(=O)=O)cc5)c4c3c2)ccc1Cl [Compound 31] | 33.5 | <1.0 | 40.7 ×10^6 cm/s | >30.0 | 222 | 
12 | O=c1ccc2cnc3ccc(-c4ccc(Cl)cc4)cc3c2n1-c1ccc(S(=O)(=O)N2CCOCC2)cc1 [Compound 38] | 220 | <1.0 | 32.5 ×10^6 cm/s | 12.7 | 187 | 
13 | Nc1ccc(-c2ccc3ncc4ccc(=O)n(-c5cccc(S(N)(=O)=O)c5)c4c3c2)cn1 [Compound 77] | 81.7 | 33.6 | <1.0 ×10^6 cm/s | >30.0 | 295 | 
14 | Cc1cc(N2CCNCC2)c(C#N)cc1-n1c(=O)ccc2cnc3ccc(-c4ccc(Cl)cc4)cc3c21 [Compound 4] | 14.9 | <1 | 21 ×10^6 cm/s | 9.6 | 55 | 
15 | CN(C)C=NS(=O)(=O)c1ccc(-n2c(=O)ccc3cnc4ccc(-c5ccc(Cl)cc5)cc4c32)cc1 [Compound 44] | 31.2 | <1.0 | 34.8 ×10^6 cm/s | 4.6 | 135 | 
16 | O=C1NCc2cc(-n3c(=O)ccc4cnc5ccc(-c6ccc(CCN7CCOCC7)cc6)cc5c43)ccc21 [Compound 372] | 540 | <1 | <1 ×10^6 cm/s | >30 | 1050 | 
17 | N#Cc1cccc(-n2c(=O)ccc3cnc4ccc(-c5ccc(N)nc5)cc4c32)c1 [Compound 20] | 11.7 | <1.0 | 505.6 ×10^6 cm/s | >30.0 | 22.6 | 
18 | N#Cc1cc(-n2c(=O)ccc3cnc4ccc(-c5ccc(N)nc5)cc4c32)ccc1N1CCOCC1 [Compound 23] | 22.5 | 1.48 | 58.15 ×10^6 cm/s | 3.5 | 40.4 | 
19 | CCN1Cc2cc(-n3c(=O)ccc4cnc5ccc(-c6ccc(F)cc6)cc5c43)ccc2C1=O [Compound 361] | 1580 | <0.10 | 199.84 ×10^6 cm/s | >30.00 | 6440 | 
20 | Nc1ccc(-c2ccc3ncc4ccc(=O)n(-c5ccc6c(c5)NC(=O)C6)c4c3c2)cn1 [Compound 394] | 130 | <1 | <1 ×10^6 cm/s | >30 | 438 | 
21 | CS(=O)(=O)c1ccc(-n2c(=O)ccc3cnc4ccc(-c5ccc(Cl)cc5)cc4c32)cc1 [Compound 25] | 14.7 | <1.0 | <1.5 ×10^6 cm/s | >30.0 | 117 | 

Now from value to molecule, other results behind:

Row | EC50 [1] [nM] | Sol @ pH 7.4 (ug/mL) (Solubility at pH 7.4) | PAMPA Permeability (×10^6 cm/s) (PAMPA permeability) | Microsomal Stability (rat) T1/2 [3] [min] | Compound | EC50 [2] [nM] | Gametocyte EC50 (nM) [2]
22 | 9.07 | <0.10 | <1.00 ×10^6 cm/s | 12.8 | C[S+]([O-])c1ccc(-n2c(=O)ccc3cnc4ccc(-c5ccc(Cl)cc5)cc4c32)cc1 (stereo not shown) [Compound 59] | 25.4 | 
23 | 668 | >70.0 | 317.6 ×10^6 cm/s | >30.0 | CN(C)Cc1ccc(-c2ccc3ncc4ccc(=O)n(-c5ccc6c(c5)CN(C)C6=O)c4c3c2)cc1 [Compound 347] | 1720 | 
24 | 14200 | >68.0 | 2.5 ×10^6 cm/s | >30.0 | CN(C)Cc1ccc(-c2ccc3ncc4ccc(=O)n(-c5ccc6c(c5)C(=O)NC6)c4c3c2)cc1 [Compound 349] | 26800 | 
25 | 75.2 | 4.2 | 25 ×10^6 cm/s | >30.0 | Nc1ccc(-c2ccc3ncc4ccc(=O)n(-c5ccc6c(c5)CN(C5CC5)C6=O)c4c3c2)cn1 [Compound 390] | 116 | 
26 | 316 | 1.4 | <4.1 ×10^6 cm/s | >30.0 | Nc1ccc(-c2ccc3ncc4ccc(=O)n(-c5ccc6c(c5)C(=O)NC6)c4c3c2)cn1 [Compound 387] | 1840 | 
27 | 16.2 | <1.0 | 33.9 ×10^6 cm/s | >30.0 | CS(=O)(=O)c1ccc(-n2c(=O)ccc3cnc4ccc(-c5ccc(Cl)c(N)c5)cc4c32)cc1 [Compound 28] | 95.3 | 
28 | 43800 | >74.0 | <1.0 ×10^6 cm/s | >30.0 | CS(=O)(=O)c1ccc(-n2c(=O)ccc3cnc4ccc(-c5ccc(Cl)c(C(=O)O)c5)cc4c32)cc1 [Compound 43] |  | Inactive
29 | 863 | >70.00 | 40.53 ×10^6 cm/s | >30.00 | CN(C)Cc1ccc(-c2ccc3ncc4ccc(=O)n(-c5ccc6c(c5)CCC(=O)N6)c4c3c2)cc1 [Compound 357] | 2200 | 
30 | 266 | >68.0 | 5.2 ×10^6 cm/s | >30.0 | CN(C)Cc1ccc(-c2ccc3ncc4ccc(=O)n(-c5ccc6c(c5)CNC6=O)c4c3c2)cc1 [Compound 340] | 616 | 
31 | 4.76 | <1.0 | <11.8 ×10^6 cm/s | >30.0 | CS(=O)(=O)c1ccc(-n2c(=O)ccc3cnc4ccc(-c5ccc(N)nc5)cc4c32)cc1 [Compound 79] | 22.8 | 
32 | 1230 | 15.7 | 55 ×10^6 cm/s | 26 | O=C1NCc2cc(-n3c(=O)ccc4cnc5ccc(-c6ccc(CN7CCOCC7)cc6)cc5c43)ccc21 [Compound 369] | 2940 | 
